The results in this text go back to publication PMC8950700 (Pharmaceuticals, 2022).

Like-named read-outs stand apart in the source and are kept apart here.

For series [1], the system named is A/chicken/Egypt/B13825A/2017 (H5N1wild). The series can be described thus: microbe, parasite or virus in culture. The series is classed as cell-based. As to conditions: Influenza A virus.
The test system of series [2] is H5N1V116A virus. The series is classed as cell-based, influenza A virus. The settings on record: read-out: IC50 (50% Inhibitory Concentration) H5N1V116A.
Series [3] deals with H5N1N295S virus. The series is classed as cell-based, influenza A virus. As to conditions: read-out: IC50 (50% Inhibitory Concentration) H5N1N295S.
The test system of series [4] is A/California/04/2009 (H1N1). In words: microbe, parasite or virus in culture. Format: cell-based. The settings on record: Influenza A virus.
Another series in a line: in vitro. The settings on record: dog.
Series [5] has as its system H5N1wild virus. Format: cell-based.
The subject of series [6] is H5N1V116A virus. The series is classed as cell-based, influenza A virus.
The subject of series [7] is H5N1N295S virus. The series is classed as cell-based, influenza A virus.
In series [8] the test system is H1N1 virus. The series is classed as cell-based.
Series [9] relates to H5N1wild virus. As to conditions: mouse, in vivo.
In series [10] the test system is H1N1 virus. The settings on record: mouse, in vivo.
The conditions of series [11]: mouse, in vivo.
The mark [12] stands for this setting: read-out: IC50 (50% Inhibitory Concentration) H5N1wild.
[13] abbreviates: H1N1, read-out: IC50 (50% Inhibitory Concentration) H1N1.
Setting [14] is: H1N1, read-out: IC50 H1N1 (Figure 5).

Regarding `CC(=O)OC[C@H]1O[C@@H](OCc2cn(Cc3nc4ccccc4s3)nn2)[C@H](OC(C)=O)[C@@H](OC(C)=O)[C@@H]1OC(C)=O` [Compound 7c, (2R,3R,4S,5R,6R)-2-(Acetoxymethyl)-6-((1-(benzo[d]thiazol-2-ylmethyl)-1H-1,2,3-triazol-4-yl)methoxy)tetrahydro-2H-pyran-3,4,5-triyl Triacetate], the IC50 amounted to 1.62 µM in series [1] (setting [12]); 11.3 µM in the series with H5N1V116A virus [2]; 37.4 µM in the series with H5N1N295S virus [3]; 1.65 µM in [4] (setting [13]); 1.66 µM in series [4] (setting [14]). In “in vitro”, the CC50 at 72 h came out at 764 µM.
In the case of `CC(=O)OC[C@H]1O[C@@H](OCc2cn(Cc3nc4ccccc4s3)nn2)[C@H](OC(C)=O)[C@@H](OC(C)=O)[C@H]1OC(C)=O` [Compound 8c, (2R,3S,4S,5R,6R)-2-(Acetoxymethyl)-6-((1-(benzo[d]thiazol-2-ylmethyl)-1H-1,2,3-triazol-4-yl)methoxy)tetrahydro-2H-pyran-3,4,5-triyl Triacetate], the IC50 amounted to 1.65 µM in series [1] (setting [12]); 68.6 µM in the series with H5N1V116A virus [2]; 64.7 µM with H5N1N295S virus [3]; 1.64 µM in series [4] (setting [13]); 1.64 µM in [4] (setting [14]). Further, the CC50 at 72 h in “in vitro” is 312 µM.
As for `CC(=O)O[C@@H]1[C@@H](OC(C)=O)[C@H](OCc2cn(Cc3nc4ccccc4s3)nn2)OC[C@H]1OC(C)=O` [Compound 9c, (2R,3R,4S,5R)-2-((1-(Benzo[d]thiazol-2-ylmethyl)-1H-1,2,3-triazol-4-yl)methoxy)tetrahydro-2H-pyran-3,4,5-triyl Triacetate], the IC50 in [1] (setting [12]) was found to be 2.25 µM; with H5N1V116A virus [2], 1.65 µM; in the series on H5N1N295S virus [3] it was 55.1 µM; in series [4] (setting [13]), 1.64 µM; in series [4] (setting [14]), 1.64 µM. For the same compound, the “inhibition in the viral HA titer, H5N1wild” value (“inhibition … H5N1wild” for short) with H5N1wild virus [5] was “more than 80%”. The “inhibition in the viral HA titer, H5N1V116A” value (“inhibition … H5N1V116A” below) in the series on H5N1V116A virus [6] is given as “more than 80%”. For the same compound, in the series with H5N1N295S virus [7], the “inhibition in the viral HA titer, H5N1N295S” value (“inhibition … H5N1N295S” below) is reported as “not more than 50%”. In the series with H1N1 virus [8], the “inhibition in the viral HA titer, H1N1” value is recorded as “more than 80%”. The “survival after infection with H5N1wild” value in the series on H5N1wild virus [9] is reported as 80%. The “viral titer in lung tissue (TCID50), H5N1wild” value with H5N1wild virus [9] is listed as “reduced the propagation”. Moreover, the “virus shedding in the nasal wash (EID50), H5N1wild” value in the series with H5N1wild virus [9] is given as “reduced the viral shedding”. The “survival after infection with H1N1” value in the series with H1N1 virus [10] is given as “full protection from mortality”. Moreover, in the series on H1N1 virus [10], the “viral titer in lung tissue (TCID50), H1N1” value is listed as “reduced the propagation”. For the same compound, in [11], the “external observations of mice” value is listed as “normal in external observations”. The ALT worked out at 7.60 ± 1.56 in series [11] (20 mg/kg), 7.80 ± 2.07 in series [11] (40 mg/kg) and 5.54 ± 1.22 in [11] (80 mg/kg). The AST in series [11] (20 mg/kg) was found to be 11.93 ± 3.765; in [11] (40 mg/kg), 9.689 ± 2.922; in [11] (80 mg/kg), 12.33 ± 3.169. Besides, the Creatinine is recorded as 0.14 ± 0.05 in series [11] (20 mg/kg), 0.14 ± 0.05 in series [11] (40 mg/kg) and 0.13 ± 0.04 in series [11] (80 mg/kg). Also, the Urea in series [11] (20 mg/kg) amounted to 7.90 ± 3.13; in [11] (40 mg/kg) it was 3.64 ± 1.49; in [11] (80 mg/kg), 4.88 ± 2.13. Further, the CC50 at 72 h in “in vitro” is 302 µM.
In the case of `CC(=O)O[C@@H]1[C@@H](OC(C)=O)[C@H](OCc2cn(Cc3nc4ccccc4[nH]3)nn2)OC[C@H]1OC(C)=O` [Compound 9a, (2R,3R,4S,5R,)-2-((1-((1H-Benzo[d]imidazol-2-yl)methyl)-1H-1,2,3-triazol-4-yl)methoxy)tetrahydro-2H-pyran-3,4,5-triyl Triacetate], the IC50 in [1] (setting [12]) was 5.8 µM; in the series on H5N1V116A virus [2], 5.62 µM; with H5N1N295S virus [3] it was 5.62 µM; in series [4] (setting [13]), 1.65 µM; in [4] (setting [14]), 1.65 µM. Besides, the “inhibition … H5N1wild” value in the series with H5N1wild virus [5] is reported as “not more than 50%”. Further, the “inhibition … H5N1V116A” value with H5N1V116A virus [6] is on record as “more than 80%”. Besides, the “inhibition … H5N1N295S” value in the series with H5N1N295S virus [7] is “not more than 50%”. In the series with H1N1 virus [8], the “inhibition in the viral HA titer, H1N1” value was “more than 80%”. The “virus shedding in the nasal wash (EID50), H5N1wild” value in the series with H5N1wild virus [9] is “reduced the viral shedding”. The “survival after infection with H1N1” value with H1N1 virus [10] was 60%. Further, the “viral titer in lung tissue (TCID50), H1N1” value in the series with H1N1 virus [10] was “significantly reduced the propagation”. In addition, in the series on H1N1 virus [10], the “virus shedding in the nasal wash (EID50), H1N1” value was “significantly reduced the viral titer”. The “external observations of mice” value in [11] is “normal in external observations”. Further, the ALT is 9.64 ± 3.64 in [11] (20 mg/kg), 10.64 ± 1.38 in series [11] (40 mg/kg) and 8.67 ± 2.16 in [11] (80 mg/kg). Besides, the results for the AST in series [11] (20 mg/kg), in [11] (40 mg/kg) and in [11] (80 mg/kg) were 20 ± 6.957, 13.77 ± 1.298 and 15.33 ± 0.9686, respectively. Moreover, the Creatinine was found to be 0.13 ± 0.04 in series [11] (20 mg/kg), 0.13 ± 0.04 in series [11] (40 mg/kg) and 0.17 ± 0.04 in series [11] (80 mg/kg). Further, the values for the Urea in [11] (20 mg/kg), in series [11] (40 mg/kg) and in series [11] (80 mg/kg) were 7.32 ± 2.09, 7.32 ± 0.48 and 4.64 ± 1.12, respectively. In “in vitro”, this compound displayed a CC50 at 72 h of 795 µM.
With `CC(=O)O[C@@H]1[C@@H](OC(C)=O)[C@H](OCc2cn(Cc3nc4ccccc4o3)nn2)OC[C@H]1OC(C)=O` [Compound 9b, (2R,3R,4S,5R)-2-((1-(Benzo[d]oxazol-2-ylmethyl)-1H-1,2,3-triazol-4-yl)methoxy)tetrahydro-2H-pyran-3,4,5-triyl Triacetate], the IC50 in series [1] (setting [12]) turned out to be 1.67 µM; in the series with H5N1V116A virus [2], 56.7 µM; in the series with H5N1N295S virus [3] it was 12.3 µM; in [4] (setting [13]), 1.68 µM. Moreover, in “in vitro”, the CC50 at 72 h worked out at 478 µM.
On to `CC(=O)OC[C@H]1O[C@@H](OCc2cn(Cc3nc4ccccc4[nH]3)nn2)[C@H](OC(C)=O)[C@@H](OC(C)=O)[C@@H]1OC(C)=O` [Compound 7a, (2R,3R,4S,5R,6R)-2-((1-((1H-Benzo[d]imidazol-2-yl)methyl)-1H-1,2,3-triazol-4-yl)methoxy)-6-(acetoxymethyl)tetrahydro-2H-pyran-3,4,5-triyl Triacetate], for which the IC50 is 325 µM in series [1] (setting [12]); 325 µM in [1] (read-out: IC50 H5N1wild (Figure 5)); 48.3 µM with H5N1V116A virus [2]; 283 µM with H5N1N295S virus [3]; 84.9 µM in [4] (setting [13]); 84.9 µM in series [4] (setting [14]). The compound also gave a CC50 at 72 h in “in vitro” of 685 µM.
For the compound `CC(=O)OC[C@H]1O[C@@H](OCc2cn(Cc3nc4ccccc4o3)nn2)[C@H](OC(C)=O)[C@@H](OC(C)=O)[C@@H]1OC(C)=O` [Compound 7b, (2R,3R,4S,5R,6R)-2-(Acetoxymethyl)-6-((1-(benzo[d]oxazol-2-ylmethyl)-1H-1,2,3-triazol-4-yl)methoxy)tetrahydro-2H-pyran-3,4,5-triyl Triacetate], the IC50 in series [1] (setting [12]) turned out to be 37 µM; in the series on H5N1V116A virus [2] it was 22.6 µM; in the series on H5N1N295S virus [3], 15.5 µM; in series [4] (setting [13]), 1.68 µM; in [4] (setting [14]), 1.68 µM. Also, in the series “in vitro”, the CC50 at 72 h was 1050 µM.
As for `CC(=O)OC[C@H]1O[C@@H](OCc2cn(Cc3nc4ccccc4[nH]3)nn2)[C@H](OC(C)=O)[C@@H](OC(C)=O)[C@H]1OC(C)=O` [Compound 8a, (2R,3R,4S,5S,6R)-2-((1-((1H-Benzo[d]imidazol-2-yl)methyl)-1H-1,2,3-triazol-4-yl)methoxy)-6-(acetoxymethyl)tetrahydro-2H-pyran-3,4,5-triyl Triacetate], the IC50 in [1] (setting [12]) was determined as 26.3 µM; with H5N1V116A virus [2], 924 µM; in the series with H5N1N295S virus [3], 22.8 µM; in series [4] (setting [13]), 1.61 µM. The CC50 at 72 h in “in vitro” was 503 µM.
Take `CC(=O)OC[C@H]1O[C@@H](OCc2cn(Cc3nc4ccccc4o3)nn2)[C@H](OC(C)=O)[C@@H](OC(C)=O)[C@H]1OC(C)=O` [Compound 8b, (2R,3S,4S,5R,6R)-2-(Acetoxymethyl)-6-((1-(benzo[d]oxazol-2-ylmethyl)-1H-1,2,3-triazol-4-yl)methoxy)tetrahydro-2H-pyran-3,4,5-triyl Triacetate]: the IC50 in series [1] (setting [12]) came out at 8.63 µM; in the series on H5N1V116A virus [2], 16.2 µM; with H5N1N295S virus [3], 19.6 µM; in series [4] (setting [13]), 1.7 µM; in [4] (setting [14]), 1.7 µM. Besides, the “inhibition … H5N1wild” value in the series on H5N1wild virus [5] is listed as “more than 80%”. The “inhibition … H5N1V116A” value in the series with H5N1V116A virus [6] is recorded as “more than 80%”. Moreover, the “inhibition … H5N1N295S” value in the series on H5N1N295S virus [7] is “not more than 60%”. Moreover, the “inhibition in the viral HA titer, H1N1” value in the series on H1N1 virus [8] is given as “more than 80%”. Also, in the series with H5N1wild virus [9], the “survival after infection with H5N1wild” value was found to be 60%. Also, the “survival after infection with H1N1” value with H1N1 virus [10] was found to be 60%. Moreover, the “external observations of mice” value in series [11] was “normal in external observations”. The figures for the ALT in series [11] (20 mg/kg), in series [11] (40 mg/kg) and in series [11] (80 mg/kg) were 10.66 ± 4.32, 8.20 ± 2.62 and 6.72 ± 1.47, respectively. Also, the AST in series [11] (20 mg/kg) worked out at 15 ± 3.41; in [11] (40 mg/kg) it was 15.77 ± 0.9944; in series [11] (80 mg/kg) it was 16 ± 5.099. The Creatinine in series [11] (20 mg/kg) came to 0.17 ± 0.04; in series [11] (40 mg/kg), 0.13 ± 0.04; in series [11] (80 mg/kg), 0.10 ± 0.02. The figures for the Urea in series [11] (20 mg/kg), in [11] (40 mg/kg) and in series [11] (80 mg/kg) were 9.00 ± 3.81, 6.66 ± 1.54 and 7.32 ± 3.90, respectively. In the series “in vitro”, this compound displayed a CC50 at 72 h of 788 µM.
